Measurements: US20260376293A1, “METHODS FOR STUDYING GPR158 PHARMACOLOGY AND IDENTIFICATION OF ITS LIGANDS” (UNIVERSITY OF FLORIDA RESEARCH FOUNDATION, INCORPORATED, priority 2022, published 2026)

Biological target: T1, GPR158 R173A mutant (Homo sapiens, UniProt Q5T848, R173A)
T1 sequence (Q5T848 24-1215 R173A): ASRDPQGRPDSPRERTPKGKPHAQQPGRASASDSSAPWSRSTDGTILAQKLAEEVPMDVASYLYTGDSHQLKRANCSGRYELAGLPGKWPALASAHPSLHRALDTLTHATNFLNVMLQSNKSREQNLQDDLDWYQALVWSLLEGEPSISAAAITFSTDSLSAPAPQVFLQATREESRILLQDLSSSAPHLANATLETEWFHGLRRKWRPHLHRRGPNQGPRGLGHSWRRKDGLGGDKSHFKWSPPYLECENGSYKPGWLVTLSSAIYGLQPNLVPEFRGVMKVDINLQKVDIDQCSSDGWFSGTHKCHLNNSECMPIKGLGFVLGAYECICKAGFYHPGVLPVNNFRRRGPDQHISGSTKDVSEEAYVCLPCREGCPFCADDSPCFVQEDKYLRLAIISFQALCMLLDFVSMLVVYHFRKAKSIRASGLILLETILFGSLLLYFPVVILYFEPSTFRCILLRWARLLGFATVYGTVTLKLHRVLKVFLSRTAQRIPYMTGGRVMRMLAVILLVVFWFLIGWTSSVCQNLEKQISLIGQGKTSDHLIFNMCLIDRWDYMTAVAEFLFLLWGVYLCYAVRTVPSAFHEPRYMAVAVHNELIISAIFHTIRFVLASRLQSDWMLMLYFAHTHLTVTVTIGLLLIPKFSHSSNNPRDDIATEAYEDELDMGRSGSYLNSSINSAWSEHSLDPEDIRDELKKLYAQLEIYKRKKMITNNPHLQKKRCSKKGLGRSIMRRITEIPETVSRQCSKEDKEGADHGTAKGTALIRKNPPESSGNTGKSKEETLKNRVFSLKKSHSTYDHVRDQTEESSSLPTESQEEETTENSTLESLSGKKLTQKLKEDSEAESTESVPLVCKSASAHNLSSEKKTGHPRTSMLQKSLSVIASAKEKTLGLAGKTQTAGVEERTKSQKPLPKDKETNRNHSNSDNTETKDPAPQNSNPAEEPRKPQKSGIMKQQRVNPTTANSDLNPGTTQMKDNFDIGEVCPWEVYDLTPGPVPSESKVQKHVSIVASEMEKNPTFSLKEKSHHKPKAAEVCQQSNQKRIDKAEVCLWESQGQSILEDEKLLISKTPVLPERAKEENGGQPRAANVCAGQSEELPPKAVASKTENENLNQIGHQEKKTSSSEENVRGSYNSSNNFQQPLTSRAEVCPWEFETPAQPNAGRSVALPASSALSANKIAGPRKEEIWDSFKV
Assay: Radioligand binding assay on GPR158 mutant R173A
Text: FIGS. 11A-11G. Probing Cache domain of GPR158 as a ligand binding site A) Computational docking of glycine into putative ligand binding pocket on GPR158 Cache domain. Glycine and directly interacting residues are shown as sticks. Hydrogen bonds and van der Waals interactions are shown as dotted lines. B) Diagram showing interactions in the docked model of glycine against GPR158 Cache domain. Hydrogen bonds are shown as dashed lines, van der Waals interactions are shown as intersecting semicircles, and the secondary structural context of Ser266 and Tyr269 is shown as an arc. Dagger indicates a residue implicated in glycine binding in 11A. C) Radioligand binding assay of ^3H-glycine in cells expressing GPR158 mutants. Data shown mean±s.e.m. of 3 independent experiments, *p<0.05, ns=p>0.05 one-way ANOVA. D) Functional evaluation of GPR158 mutants in GAP BRET assay. Error bars are mean±s.e.m. of 3 independent experiments in triplicate. *p<0.05, **p<0.01, ***p<0.001, ****p<0.0001, ns=p>0.05, two-way ANOVA Columns with no fill (Ctrl), columns with angled-line fill (Glycine) E) Quantification of glycine inhibitory effect on kGAP normalized to the effect seen with WT receptor. […]
Whole cell binding was performed using cDNA of GPR158-venus or each GPR158-venus mutant or empty pcDNA3.1+ for ctrl cells. […] Finally radioactivity was measured using the liquid scintillation analyzer Tri-Carb 4910 TR.

- [^3H]-glycine binding: near complete loss
SMILES: NCC(=O)O [^3H-glycine, [^3H]-glycine]
